14 substances from doi:10.1101/2024.12.16.628070v1 (bioRxiv, 2024) can be followed below.

Like-named read-outs stand apart in the source and are kept apart here. Where no end group is shown, it is not given here.

Broadly, the MIC is the lowest concentration that inhibits growth of the organism. Lower therefore signals inhibition by little substance.

One experiment has as its system Pseudomonas aeruginosa. The experiment is described as follows: MIC, broth microdilution. Format: cell-based. The conditions noted are these: strain ATCC 9027. (Dilution methods test growth across graded concentrations, often in twofold steps.)
Another experiment has as its system Escherichia coli. Format: cell-based.
A further experiment has as its system Klebsiella pneumoniae. The experiment is described as follows: MIC, broth microdilution. It counts as cell-based. The conditions noted are these: strain ATCC 700603.
In another experiment the test system is Bacillus subtilis. The experiment is described as follows: MIC, broth microdilution. The conditions noted are these: strain ATCC 6633. Format: cell-based.
A further experiment deals with Acinetobacter baumannii. The experiment is described as follows: MIC, broth microdilution. Format: cell-based. The conditions noted are these: strain ATCC 19606.
For a further experiment, the system named is Morganella morganii. The experiment is described as follows: MIC, broth microdilution. The conditions noted are these: strain ATCC 25830. Format: cell-based.
A further experiment concerns Staphylococcus aureus. The experiment is described as follows: MIC, broth microdilution. It counts as cell-based. The settings on record: strain ATCC 29737.
In a further experiment the test system is Enterococcus faecalis. The experiment is described as follows: MIC, broth microdilution. Format: cell-based. The conditions noted are these: strain ATCC 29212.
A further experiment concerns Enterobacter cloacae. The experiment is described as follows: MIC, broth microdilution. It counts as cell-based. The conditions noted are these: strain ATCC 13047.
The subject of a further experiment is E. coli M6. Format: cell-based, Escherichia coli. The conditions noted are these: sub-inhibitory concentrations, MHB.
Where [1] appears, read: strain ATCC 25922 (WT), broth microdilution, MHB, 18-20 h, 37 °C.

In the case of “WINAFANWTKRI (also: bicyclic or more (positions not given here)) [Compound 3, xenorceptide A3]”, the MIC with Pseudomonas aeruginosa is 64 µg/mL; in the experiment on Escherichia coli (setting [1]), 8 µg/mL; against Klebsiella pneumoniae, 8 µg/mL; against Bacillus subtilis, greater than 64 µg/mL; against Acinetobacter baumannii, greater than 64 µg/mL; against Morganella morganii, 64 µg/mL. The MIC against Staphylococcus aureus is greater than 64 µg/mL.
With “WINAFGNWTKSF (also: bicyclic or more (positions not given here)) [Compound 16, xenorceptide A16]”, the MIC in the experiment with Escherichia coli (setting [1]), against Klebsiella pneumoniae, in the experiment with Acinetobacter baumannii, against Enterococcus faecalis, with Staphylococcus aureus and with Enterobacter cloacae was greater than 64 µg/mL throughout.
For “WVNAFAKWTKRI (also: bicyclic or more (positions not given here)) [Compound 11, xenorceptide A11]”, the minimum inhibitory concentration (MIC) with Escherichia coli (setting [1]) was 4 µg/mL; in the experiment on Klebsiella pneumoniae it was 8 µg/mL; against Acinetobacter baumannii it was greater than 64 µg/mL; against Enterococcus faecalis, greater than 64 µg/mL; against Staphylococcus aureus it was greater than 64 µg/mL; against Enterobacter cloacae it was 8 µg/mL.
On to “WVNAFANWPKRF (also: bicyclic or more (positions not given here)) [Compound 13, xenorceptide A13]”, for which the MIC with Escherichia coli (setting [1]) is 8 µg/mL; with Klebsiella pneumoniae, 32 µg/mL; with Acinetobacter baumannii, greater than 64 µg/mL; against Enterococcus faecalis it was greater than 64 µg/mL; with Staphylococcus aureus, greater than 64 µg/mL; in the experiment on Enterobacter cloacae, greater than 64 µg/mL.
“WVNAFANWSKAL (also: bicyclic or more (positions not given here)) [Compound 15, xenorceptide A15]”: the MIC is 64 µg/mL in the experiment on Escherichia coli (setting [1]); greater than 64 µg/mL in the experiment on Klebsiella pneumoniae; greater than 64 µg/mL in the experiment with Acinetobacter baumannii; greater than 64 µg/mL in the experiment on Enterococcus faecalis; greater than 64 µg/mL in the experiment on Staphylococcus aureus; greater than 64 µg/mL against Enterobacter cloacae.
Regarding “WVNAFANWSKSF (also: bicyclic or more (positions not given here)) [Compound 6, xenorceptide A6]”, the minimal inhibitory concentration (MIC) with Pseudomonas aeruginosa is greater than 64 µg/mL; with Escherichia coli (setting [1]) it was 64 µg/mL; in the experiment on Klebsiella pneumoniae it was greater than 64 µg/mL; in the experiment with Acinetobacter baumannii, greater than 64 µg/mL; against Staphylococcus aureus, greater than 64 µg/mL.
With “WVNAFANWTKRF (also: bicyclic or more (positions not given here)) [Compound 8, xenorceptide A8]”, the minimal inhibitory concentration (MIC) in the experiment with Pseudomonas aeruginosa was 64 µg/mL; against Escherichia coli (setting [1]) it was 2 µg/mL; against Klebsiella pneumoniae, 4 µg/mL; in the experiment with Acinetobacter baumannii, greater than 64 µg/mL; with Staphylococcus aureus, greater than 64 µg/mL.
“WVNAFARWDKKF (also: bicyclic or more (positions not given here)) [Compound 7, xenorceptide A7]”: the minimal inhibitory concentration (MIC) is greater than 64 µg/mL against Pseudomonas aeruginosa; 64 µg/mL with Escherichia coli (setting [1]); greater than 64 µg/mL against Klebsiella pneumoniae; greater than 64 µg/mL in the experiment with Acinetobacter baumannii; greater than 64 µg/mL in the experiment with Staphylococcus aureus.
As for “WVNAFGNWSKSL (also: bicyclic or more (positions not given here)) [Compound 14, xenorceptide A14]”, the MIC against Escherichia coli (setting [1]) was 64 µg/mL; against Klebsiella pneumoniae, greater than 64 µg/mL; against Acinetobacter baumannii, greater than 64 µg/mL; in the experiment on Enterococcus faecalis it was greater than 64 µg/mL; in the experiment on Staphylococcus aureus it was greater than 64 µg/mL; with Enterobacter cloacae, 64 µg/mL.
For “WVNAFVNWPKSF (also: bicyclic or more (positions not given here)) [Compound 5, xenorceptide A5]”, the minimum inhibitory concentration (MIC) was greater than 64 µg/mL against Pseudomonas aeruginosa; 16 µg/mL against Escherichia coli (setting [1]); 32 µg/mL in the experiment with Klebsiella pneumoniae; greater than 64 µg/mL with Acinetobacter baumannii; greater than 64 µg/mL in the experiment with Staphylococcus aureus.
Take “WVNAYARWTKRF (also: bicyclic or more (positions not given here)) [Compound 12, xenorceptide A12]”: the MIC was 4 µg/mL in the experiment on Escherichia coli (setting [1]); 16 µg/mL against Klebsiella pneumoniae; greater than 64 µg/mL with Acinetobacter baumannii; greater than 64 µg/mL against Enterococcus faecalis; greater than 64 µg/mL in the experiment with Staphylococcus aureus; greater than 64 µg/mL against Enterobacter cloacae.
Regarding “WVNAYARWTNRF (also: bicyclic or more (positions not given here)) [Compound 4, xenorceptide A4]”, the MIC with Pseudomonas aeruginosa is greater than 64 µg/mL; against Escherichia coli (setting [1]), 8 µg/mL; with Klebsiella pneumoniae it was 16 µg/mL; in the experiment with Bacillus subtilis, greater than 64 µg/mL; with Acinetobacter baumannii, greater than 64 µg/mL; in the experiment with Morganella morganii, 64 µg/mL. For the same substance, the minimal inhibitory concentration (MIC) against Staphylococcus aureus was greater than 64 µg/mL.
For the substance colistin [reference compound], the “time to development of resistance in serial passage” value in the experiment on E. coli M6 amounted to 3 days.
As for dynobactin A [reference compound], the MIC against Escherichia coli (K12 MG1655 BamA F394V, E435K, G443D) is 16 µg/mL; against Escherichia coli (K12 MG1655 BamA G429V, G807V), greater than 128 µg/mL; with Escherichia coli (setting [1]) it was 8 µg/mL; in the experiment with Escherichia coli (strain K12 MG1655 (WT)), 16 µg/mL.
